Test results published in publication PMC6173696, “Structural properties of a haemophore facilitate targeted elimination of the pathogen Porphyromonas gingivalis” (Nature Communications, 2018).

How the values were obtained:
[1] = system: P. gingivalis wild-type W83; experiment: Checkerboard / broth micro-dilution assay (MIC, MBC), wild-type W83; assay type: cell-based, Porphyromonas gingivalis; details: Porphyromonas gingivalis; planktonic W83, 24 h, anaerobic; read-out: minimal inhibitory concentration
Description: Fig. 5 A prototype DPIX-conjugated antibiotic binds HusA and inhibits P. gingivalis. a The chemical structure of the deuteroporphyrin-lysine-metronidazole adduct, P8. b NMR signal intensity changes (black) and ^1H^N CSPs (red/green) for HusA upon addition of P8 (measured from ^15N-HSQC spectra shown in Supplementary Figure 21). c In silico docking of P8 to the energy minimized structure of HusA (conformer set 1), with residues experiencing NMR signal loss (orange) or CSPs (red/green) mapped to the structure (colouring as described in Fig. 2d). d Scaled and corrected fluorescence at 335 nm during titration of 1 μM of HusA with increasing concentrations of P8, haemin or DPIX. e Comparison of P8 inhibitory effect towards P. gingivalis wild-type W83 and husA mutants using checkerboard analysis. Serial dilutions of antibiotics (horizontal axis) were applied to a 96-well plate with different P. gingivalis strains (vertical axis). Serial dilutions of DPIX were also supplemented into wild-type W83 group to evaluate the competitive effect against P8. Absorption at OD600 of each well was recorded after 24 h of incubation. The OD600 of each strain grown in the absence of antibiotics was defined as 100% growth, which was applied to normalise the reading collected from other wells. The normalised percentage of each well was plotted in the checkerboard. Metronidazole alone and in combination with PPIX or DPIX was applied as control. f Intracellular killing assay of P8 antibiotics. Gingival H413 epithelial cells were infected by P. gingivalis W83 and then treated with P8 at various concentrations. Recovered bacteria were determined by CFU count. Metronidazole and DMSO were used as control. Three independent experiments with triplicate assays were conducted. […]

HusA [2] = biological target: T1, HusA (Porphyromonas gingivalis, UniProt Q7MSY3); experiment: UV-visible absorption spectral analysis of ligand interaction with HusA; assay type: binding
T1 sequence (Q7MSY3 24-218): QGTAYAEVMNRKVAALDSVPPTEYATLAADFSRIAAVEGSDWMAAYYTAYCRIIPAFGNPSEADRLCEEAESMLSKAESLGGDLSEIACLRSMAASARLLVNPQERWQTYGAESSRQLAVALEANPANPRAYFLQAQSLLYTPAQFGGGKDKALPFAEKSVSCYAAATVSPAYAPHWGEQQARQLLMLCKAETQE
Experimental: All absorbance spectra were recorded at room temperature using 10-mm quartz cuvettes on a Shimadzu UV-1601 or Jasco V-630 spectrophotometer. Mixtures of HusA/mutant with porphyrins were prepared by dissolving porphyrin stocks in standard buffer to a final concentration of 5–20 μM with a 1–1.5 molar ratio of protein to porphyrin, as specified in the relevant figure legends. PPIX:HusA mixtures were prepared by incremental addition of 2–4 μM HusA with a 10–15 min wait after each addition of HusA.

HusA [3] = biological target: T1, HusA; experiment: Tryptophan fluorescence quenching assay, HusA wild-type; assay type: binding; details: HusA wild-type 1 µM, fit to 1:1 binding model; read-out: Kd
Experimental: The quenching of intrinsic tryptophan fluorescence of HusA upon porphyrin additions was measured using a Carey Eclipse Fluorescence Spectrophotometer (Agilent) set to a photo multiplier effect (PME) of 850. A 5-mm path length quartz cuvette was used and all spectra were acquired at room temperature. Excitation was set to 295 nm and emission was measured from 300 nm to 500 nm using excitation/emission slit widths of 5 nm. Binding assays were performed at a protein concentration of 1 μM HusA in standard buffer at a working volume of 0.5 mL. […] The fluorescence quenching of HusA by PPIX was investigated in a similar manner with the following difference: the fluorescence intensities of ten 1 μM HusA samples were measured each with increasing amounts of PPIX after a 2-h incubation period to allow equilibrium to be reached. See Supplementary Methods for correction for inner filter effect and curve fitting. […]
Correction of inner filter effect and curve fitting in tryptophan fluorescence quenching assays The concentration of NATA was chosen such that the raw fluorescence intensity was similar to the […] concentrations of HusA and mutants used. The same molarity titrants of porphyrin were titrated into NATA as were added into HusA in the control reactions. Fluorescence intensity was scaled with respect to the starting florescence and corrected for the inner filter effect. Fluorescence at 335 nm was used to fit binding curves.
The correction method is based on Fonin AV., et al.26, noting that a Cary Eclipse spectrofluorimeter […]
performed to measure the contribution to the decrease in fluorescence due to the inner filter effect and this effect was scaled to the starting fluorescence values as fractional changes. The measured fluorescence at each titration point for each of the porphyrin titrations into protein was then adjusted for this contribution. Fluorescence at 335 nm was used to fit binding curves. Association constant, Ka, was fitted using the following equation in Origin, assuming a single binding site. A dissociation constant, Kd, was calculated by taking the inverse of the Ka.
Xobs = XA×f A+XAB×f AB (1) where XA is the corrected fluorescence, fA=1-fAB, fAB=x/(Bt), x=(-b-sqrt(b2-4×c))/2, b=-(1/Ka+At+Bt), c=Bt×At, Bt=total concentration of protein, At=total concentration of ligand.
To aid comparison of the different titrations, the corrected fluorescence was scaled to the starting fluorescence in the absence of porphyrins (i.e. all fluorescence curves have a starting value of one

[4] = system: P. gingivalis wild-type W83; experiment: Checkerboard analysis of metronidazole with PPIX or DPIX, iron-replete and -limited; assay type: cell-based, Porphyromonas gingivalis; details: iron replete or iron-limited conditions
Experimental: Supplementary Figure 24. Comparison of metronidazole inhibitory effect towards P. gingivalis wild-type W83 in the presence of PPIX or DPIX under iron-replete and -limited conditions by checkerboard analysis. Serial dilutions of antibiotics along the horizontal axis were applied to a 96-well plate with P. gingivalis W83. Two pre-determined concentrations of PPIX or DPIX were supplemented to evaluate the synergistic effect between metronidazole and porphyrins. Dipyridyl (at 100 µM) was also applied to explore the potential effect under iron-replete and iron-depleted conditions. Absorption at OD600 of each well was recorded after 24 h of incubation. The OD600 of each strain grown in the absence of antibiotics was defined as 100% growth which was applied to normalise the reading collected from other wells. The normalised percentage of each well was plotted […]
(1 picture or pasted object on this page, not shown here)

P. gingivalis W83 = experiment: Growth of starved W83 with titration of dipyridyl; assay type: cell-based, Porphyromonas gingivalis
Description: This manuscript further describes HusA protein. Although very sophisticated methods were used and interesting results were gained, this study requires more work to be convincing. The conclusions drawn (mainly regarding the possibility that porphyrin-metronidazole conjugate could be used to treat P. gingivalis infection) are very strong but not supported enough by the data presented.
- How is this possible that P. gingivalis grows in the culture medium lacking iron (dipyridyl added) and supplemented with porphyrins without metal inside the porphyrin ring (Fig 1, panel A)? What serves as an iron source allowing P. gingivalis to grow? Were the bacteria starved before these experiments? Please explain this more carefully.
Response: We agree with the reviewer that P. gingivalis requires both iron and porphyrin to survive. Iron is naturally present in the complex medium, enriched tryptic soy broth (eTSB), used in this study. The iron concentration of TSB medium has been previously determined at 0.74 µg/mL by atomic absorption spectrophotometry (de Oliverira Moreira L., et al., 2003 AEM) which requires approximately 500 µM dipyridyl to chelate all available iron in the medium (Scharfman AH 1996 I&I). The dipyridyl used in this study is 100 µM and the remaining iron provided by the TSB medium is sufficient to support P. gingivalis growth. […]

SMILES	interaction with HusA by UV-visible absorption (HusA [2])	Kd (HusA [3]) [nM]	further results
Cc1ncc([N+](=O)[O-])n1CCO [Metronidazole, metronidazole]	–	–	MIC [1]: 5 to 10 µM
C=CC1=C(C)/C(=C/c2[nH]c(Cc3[nH]c(/C=C4\NC(=O)C(C)=C4C=C)c(C)c3CCC(=O)O)c(CCC(=O)O)c2C)NC1=O [bilirubin]	no interaction	–	–
CC1=Cc2cc3[n-]c(cc4[n-]c(cc5nc(cc1n2)C=C5C)c(C)c4CCC(=O)[O-])c(CCC(=O)[O-])c3C.[Fe+2].[H+].[H+] [Fe(III)DPIX, iron(III) deuteroporphyrin IX]	–	220 ± 50	–
C=CC1=C(C)/C(=C/C2=NC(=C\c3[nH]c(/C=C4\NC(=O)C(C)=C4C=C)c(C)c3CCC(=O)O)/C(CCC(=O)O)=C2C)NC1=O [biliverdin]	no interaction	–	–
C=CC1=C(C)c2cc3[nH]c(cc4nc(cc5[nH]c(cc1n2)c(C)c5CCC(=O)O)C(CCC(=O)O)=C4C)c(C)c3C=C [PPIX, protoporphyrin-IX]	–	1900 ± 600	sensitisation of P. gingivalis cells towards metronidazole [4]: Neither PPIX nor DPIX sensitised
c1ccc(-c2ccccn2)nc1 [dipyridyl, 2,2’-dipyridyl]	–	–	dipyridyl concentration at which growth recovery after starvation was observed (P. gingivalis W83): up to 200 µM; dipyridyl concentration at which P. gingivalis failed to recover (P. gingivalis W83; W83 after starvation): ≥ 500 µM
